The values below are quoted from earlier work in patent publication US8728553B2, “Vitamin containing product” (Nattopharma ASA, priority 2000, dated 2014).

Each structure is given as a SMILES string.

For the data set the following is noted: intake of 5 g butter to which 800 μg MK-4 had been added (equivalent to 16 mg MK-4 per 100 g butter).

With `CC(C)=CCC/C(C)=C/CC/C(C)=C/CC/C(C)=C/CC1=C(C)C(=O)c2ccccc2C1=O` [MK-4, menaquinone (MK-4)], the “MK-4 levels in blood serum” value is listed as “increased”.
